Laboratory results taken from patent publication US7230033B2, “Pest control compositions and methods for their use” (United States of America as represented by the Secretary of …, priority 2000, dated 2007).

Legend:
Ae. aegypti adults = test: Adult mosquito bottle bioassay; format: in vivo, Aedes aegypti; conditions: 24 h exposure; for Slope: probit
Protocol: (§1) Adult mosquitoes were tested using the bottle bioassay method of Brogden and McAllister (J. Am. Mosq. Control Assoc., 14:159–64, 1998) with minor modifications. Natural product extracts were two-fold serially diluted for a total of 8 concentrations ranging from 0.002% to 0.25% in 1.5 ml of acetone. Individual dilutions were added to 250 ml Wheaton glass bottles and capped. Bottles were manipulated to evenly coat all inner surfaces. The caps were removed and bottles were allowed to air-dry overnight. Once bottles were completely dry, 10–50 (in some tests 25–50) adult mosquitoes were aspirated into the bottles. Mosquitoes were held in the bottles for 24 h at 23° C. and 85% RH. Morbidity and mortality were recorded at 15, 30, 45, and 60 min and 24 hour intervals. One bottle for each replicate was treated with acetone only and served as a control. The dose-mortality data was evaluated with probit analysis, using the LdP Line software, to determine LC50 and LC90 values.
Carvacrol was combined with compound 7, 9, or 10 at a 1:1 ratio (7.5 μl of carvacrol:7.5 μl of compound 7, 9, or 10 was added to 2,985 μl of acetone for a 0.5% solution, from which serial dilutions were made), and tested as previously described against nymphal ticks and adult and larval mosquitoes.

[1] = test system: nymphal Ixodes scapularis; test: Treated-vial biocidal screening with 2% acetone solutions (Example 2), tick nymphs; format: in vivo; conditions: treated vials sat 72 h; arthropods added for the final 24 h
Protocol: (§2) Samples of the compounds listed below were obtained as described in Example 1, and screened for biocidal activities against nymphal Ixodes scapularis. In this example, 2% acetone solutions (wt/vol) of the compounds were applied to inner surfaces of 2-dram friction cap vials. Vials and caps were treated then allowed to dry for a minimum of 4 hours before placing 10 nymphs in each container. These same vials were used to challenge additional nymphs and adult I. scapularis ticks and adult Xenopsylla cheopis fleas through five weeks to observe any possible residual activity.
(§3) Numbers in parentheses refer to length of treatment in terms of hours (h) or weeks (wk). Data is presented in terms of number killed/number tested. For test periods longer than 24 hours, the treated vials were allowed to sit for the stated period after drying (72 h, 4 wk, or 5 wk) and each group of arthropods was added to the vials for the final 24 h of the test period.

I. scapularis nymphs = test: Tick bioassay, treated 2-dram vials, probit analysis; format: in vivo, Ixodes scapularis; conditions: 24 h exposure; for Slope: probit
Description: A control treated with acetone only was run with each series.
For each time point, if ticks and fleas were incapable of movement, maintaining normal posture, leg coordination, ability to right themselves, or any signs of life, they were considered moribund or dead.

[2] = test system: adult I. scapularis ticks; test: Treated-vial biocidal screening with 2% acetone solutions (Example 2), adult ticks, residual; format: in vivo, Ixodes scapularis; conditions: treated vials sat 4 wk; arthropods added for the final 24 h
Protocol: as §2, §3

[3] = test system: adult Xenopsylla cheopis fleas; test: Treated-vial biocidal screening with 2% acetone solutions (Example 2), adult fleas, residual; format: in vivo; conditions: treated vials sat 5 wk; arthropods added for the final 24 h
Protocol: as §2, §3

X. cheopis adults = test: Flea bioassay, treated 2-dram vials, probit analysis; format: in vivo, Xenopsylla cheopis; conditions: 24 h exposure; for Slope: probit
Protocol: Med. […] A control treated with acetone only was run with each series. Tick and flea susceptibility was evaluated using a modification of the disposable pipette method of Barnard et al. (J. Econ. Entomol., 74:466-69, 1981) and Maupin and […]. Med. […] The inner surface of 2-dram friction cap vials were treated with the compound/acetone solution, or acetone only as a control, and left to air-dry overnight (see also, […] et al., J. Med. […] Three to 4 holes were made in the plastic cap to allow for air exchange. Nymphal ticks and adult fleas were then placed directly into the vials using forceps. […] For each time point, if ticks and fleas were incapable of movement, maintaining normal posture, leg coordination, ability to right themselves, or any signs of life, they were considered moribund or dead.

[4] = test system: ticks, fleas, and mosquitoes; test: Residual activity, general statements (Examples 9, 17); format: in vivo; conditions: ticks
Aedes aegypti adults = test: Residual activity, aged treated bottles, mosquitoes; format: in vivo; conditions: 1 week after treatment
Protocol: as §1

Ixodes scapularis nymphs = test: Residual activity, aged treated vials, ticks; format: in vivo; conditions: 1 week after treatment
Protocol: Briefly, groups of 10 nymphal I. scapularis and X. cheopis fleas were used in all tests (more than a total of 5,240 nymphs and 4,860 fleas were exposed to the compounds). The inner surface of 2-dram friction cap vials were treated with the compound/acetone solution, or acetone only as a control, and left to air-dry overnight (see also, Panella et al., J. Med. Entomol., 42(3):352-358, 2005. Three to 4 holes were made in the plastic cap to allow for air exchange. Nymphal ticks and adult fleas were then placed directly into the vials using forceps. Vials containing ticks or fleas were placed in desiccators for 24 h at 21° C. and 90% RH. Morbidity and mortality was recorded at 1, 2, 4, 8, and 24 h after initial exposure.

[5] = NE = not effective at concentrations tested

C=C(C)[C@@H]1CCC2=CCC[C@@H](C)[C@]2(C)C1 [Compound 5, Valencene] was tested, and the LC50 (Ae. aegypti adults; [5]) was 0.015 percent concentration, wt:vol, the LC90 (Ae. aegypti adults; [5]) was 0.037 percent concentration, wt:vol and the Slope (Ae. aegypti adults) was 3.199. The “I. scapularis nymphs (72 h), number killed/number tested” value [1] was 0/5, the Slope (I. scapularis nymphs) was 0.684 and the “I. scapularis adults (4 wk), number killed/number tested” value [2] was 0/5. For the same molecule, the “X. cheopis adults (5 wk), number killed/number tested” value [3] was 0/5 and the Slope (X. cheopis adults) was 6.925.

With C=C(C)C1CC=C2C=CCC(C)C2(C)C1 (stereo not shown) [Compound 6, Nootkatene] the residual activity [4] was “did not demonstrate any residual activity after one week”, the LC50 (Ae. aegypti adults; [5]) was 0.027 percent concentration, wt:vol and the Slope (Ae. aegypti adults) was 3.696. For the same molecule, the “I. scapularis nymphs (72 h), number killed/number tested” value [1] was 4/5, the “LC90, residual activity” value (Aedes aegypti adults) was 0.659 percent concentration, wt:vol and the “Slope, residual activity” value (Aedes aegypti adults) was 1.833. For the same molecule, the LC50 (I. scapularis nymphs; [5]) was 0.011 percent concentration, wt:vol, the LC90 (I. scapularis nymphs; [5]) was 0.06 percent concentration, wt:vol and the Slope (I. scapularis nymphs) was 1.763. The “I. scapularis adults (4 wk), number killed/number tested” value [2] was 0/5, the “X. cheopis adults (5 wk), number killed/number tested” value [3] was 0/5 and the “Slope, residual activity” value (Ixodes scapularis nymphs) was 0.533. The LC50 (X. cheopis adults; [5]) was 0.017 percent concentration, wt:vol and the Slope (X. cheopis adults) was 2.022.
